Reference: US20260224463A1, “COMPOSITIONS COMPRISING HYDROPHILIC ACTIVE INGREDIENTS IN OIL” (Lubrizol Advanced Materials, Inc., priority 2023, published 2026)

Tests used:
[1] = Visual inspection of physical appearance of the compositions; assay type: physicochemical; settings: peptide 0.125 wt. % at the optimal ingredient concentrations, in words
Method: The stability of the formulations was determined by visual inspection and by quantification of the amount of active ingredient by high performance liquid chromatography (HPLC).
Visual inspection: The results are classified as OK or KO according to the physical appearance. OK represents a transparent solution at t=0 h with small particles at the bottom after 24h. KO represents solutions completely separated into phases, turbid or with an unacceptable precipitate at the bottom.

Log P of the peptides = assay type: physicochemical

Row | compatibility of the peptide with the composition [1] | logP (Log P of the peptides) | Compound
1 | good compatibility | -3.38 | H-FWMKRKRVP-NH2 [PEP-8, H-Phe-Trp-Met-Lys-Arg-Lys-Arg-Val-Pro-NH2]
2 | good compatibility | -5.84 | Ac-EEMQRRAD-NH2 [PEP-2, Ac-Glu-Glu-Met-Gln-Arg-Arg-Ala-Asp-NH2]

Row | Compound | compatibility of the peptide with the composition [1] | logP (Log P of the peptides)
3 | CC(C)C[C@H](NC(=O)[C@H](Cc1ccccc1)NC(=O)CNC(=O)[C@@H](C)NC(=O)[C@@H](N)Cc1ccc(O)cc1)C(=O)O [PEP-9, H-Tyr-D-Ala-Gly-Phe-Leu-OH] | good compatibility | -1.02
